Experimental findings from ChEMBL document CHEMBL1201862, “PubChem BioAssay data set” (2004) are described below.

Test systems include OVCAR-8; 786-0; UACC-257; PC-3; OVCAR-3; UACC-62; MDA-N; SF-295; HCT-116; A549; SN12C; HL-60; IGROV-1; CCRF-CEM; HOP-92; SF-539; SK-MEL-5; NCI/ADR-RES; CAKI-1; Hs-578T.
Common to all, as to test: NCI anticancer screen, dose series, 48 h

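Each compound was tested at five concentrations against cells in 96-well plates for 48 hours. GI50 marks 50% less growth.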 Calls of active or inactive are those of the source. No stated cut-off is given here; in the data, active = GI50 up to about 1.1 µM and inactive = higher.

Turning to `Cc1cccc(N2C(=O)C3ON(C(C(N)=O)c4ccccc4)C(c4c5ccccc5c(Cl)c5ccccc45)C3C2=O)c1C` (stereo not given), the GI50 is 9.84 µM (inactive) in the assay on OVCAR-8; 9.62 µM (inactive) in the assay with 786-0; 6.87 µM (inactive) with UACC-257; 7.78 µM (inactive) with PC-3; 8.43 µM (inactive) in the assay on OVCAR-3; 6.84 µM (inactive) in the assay with UACC-62. Moreover, the GI50 in the assay with MDA-N was 3.3 µM (inactive); with SF-295 it was 9.66 µM (inactive); in the assay with HCT-116, 1.34 µM (inactive); with A549, 14.3 µM (inactive); with SN12C, 8.07 µM (inactive); in the assay on HL-60 it was 4.12 µM (inactive). The GI50 was 11.6 µM (inactive) with IGROV-1; 2.55 µM (inactive) in the assay on CCRF-CEM; 7.89 µM (inactive) in the assay on HOP-92; 7.67 µM (inactive) in the assay with SF-539; 7.03 µM (inactive) in the assay with SK-MEL-5; 10.9 µM (inactive) in the assay on NCI/ADR-RES. Also, the GI50 with CAKI-1 is 9.06 µM (inactive); in the assay with Hs-578T, 16.6 µM (inactive).
Regarding `Cc1[nH]c(-c2ccccc2)c(O)c1C(=O)OC12CC3CC(CC(C3)C1)C2`, the GI50 with OVCAR-8 is 12.9 µM (inactive); in the assay on 786-0, 14 µM (inactive); with UACC-257, 16.5 µM (inactive); in the assay on PC-3, 15.5 µM (inactive); in the assay on OVCAR-3, 14.6 µM (inactive); with UACC-62, 17.3 µM (inactive). The GI50 was 17.4 µM (inactive) in the assay on MDA-N; 2.93 µM (inactive) in the assay with SF-295; 16.7 µM (inactive) in the assay with HCT-116; 12.1 µM (inactive) with A549; 16.4 µM (inactive) in the assay with SN12C; 55.6 µM (inactive) in the assay with HL-60. The GI50 is 14.1 µM (inactive) in the assay with IGROV-1; 39 µM (inactive) in the assay with CCRF-CEM; 18.8 µM (inactive) in the assay with HOP-92; 11 µM (inactive) with SF-539; 14.6 µM (inactive) in the assay on SK-MEL-5; 13.7 µM (inactive) in the assay on NCI/ADR-RES. Further, the GI50 in the assay with CAKI-1 is 20.1 µM (inactive); with Hs-578T it was 10.3 µM (inactive).
Turning to `N#C/C(C(=O)CCl)=C1\Nc2ccccc2O1`, the GI50 with OVCAR-8 is 2.89 µM (inactive); with 786-0 it was 3.76 µM (inactive); in the assay with UACC-257 it was 3.07 µM (inactive); in the assay with PC-3, 4.45 µM (inactive); in the assay on OVCAR-3, 3.77 µM (inactive); in the assay with UACC-62, 2.35 µM (inactive). Moreover, the GI50 is 3.71 µM (inactive) with MDA-N; 2.62 µM (inactive) in the assay on SF-295; 3.43 µM (inactive) in the assay with HCT-116; 6.1 µM (inactive) in the assay with A549; 2.9 µM (inactive) with SN12C; 2.43 µM (inactive) in the assay on HL-60. In addition, the GI50 with IGROV-1 was 1.83 µM (inactive); with CCRF-CEM, 3.29 µM (inactive); with HOP-92 it was 3.88 µM (inactive); with SF-539, 2.79 µM (inactive); in the assay with SK-MEL-5, 1.72 µM (inactive); in the assay with NCI/ADR-RES it was 2.2 µM (inactive). Moreover, the figures for the GI50 with CAKI-1 and with Hs-578T were 3.65 µM (inactive) and 6.01 µM (inactive), respectively.
Regarding `CCCCCCCCCCCC[C@@H](O)[C@H]1CCC([C@H](O)CCCCC(=O)CCCCCCCC2=C[C@H](C)OC2=O)O1` (stereo not given in full), the GI50 in the assay with OVCAR-8 is 28.5 µM (inactive); with 786-0, > 31.6 µM (inactive); in the assay on UACC-257 it was 7.96 µM (inactive); in the assay on PC-3 it was 14.6 µM (inactive); in the assay with OVCAR-3, > 50 µM (inactive); in the assay on UACC-62, 17.4 µM (inactive). The GI50 in the assay with MDA-N is > 35.2 µM (inactive); with SF-295 it was 20.1 µM (inactive); in the assay with HCT-116, 3.01 µM (inactive); with A549 it was 10.4 µM (inactive); in the assay on SN12C, > 39 µM (inactive); in the assay on HL-60 it was 0.991 µM (active). Besides, the GI50 with IGROV-1 is > 50 µM (inactive); with CCRF-CEM, 4.59 µM (inactive); with HOP-92, > 27 µM (inactive); in the assay with SF-539, > 50 µM (inactive); with SK-MEL-5, 0.0315 µM (active); in the assay with NCI/ADR-RES it was 12.6 µM (inactive). Further, the GI50 with CAKI-1 is > 36.4 µM (inactive); in the assay with Hs-578T, 11.3 µM (inactive).
`COc1cc([C@H]2CC(=O)C[C@@H](c3cc(OC)c(OC)c(OC)c3)C23C(=O)c2ccccc2C3=O)cc(OC)c1OC`: the GI50 with OVCAR-8, in the assay with 786-0, in the assay with UACC-257, with PC-3, with OVCAR-3 and in the assay on UACC-62 was > 100 µM (inactive) each time. In addition, the GI50 with MDA-N, with SF-295, with HCT-116, in the assay with A549, with SN12C and in the assay on HL-60 was > 100 µM (inactive) in each case. Besides, the GI50 in the assay on IGROV-1, in the assay on CCRF-CEM, in the assay on HOP-92, in the assay on SF-539, in the assay with SK-MEL-5 and with NCI/ADR-RES was > 100 µM (inactive) each time. For the same compound, the GI50 in the assay on CAKI-1 and with Hs-578T was > 100 µM (inactive) throughout.
`CC(=O)c1ccc(Nc2c3c(nc4ccccc24)CCCC3)cc1`: the GI50 with OVCAR-8 was 17.7 µM (inactive); in the assay on 786-0, 25.7 µM (inactive); with UACC-257 it was 24.5 µM (inactive); in the assay with PC-3, 41.1 µM (inactive); in the assay with OVCAR-3, 11.5 µM (inactive); with UACC-62, 17.1 µM (inactive). In addition, the GI50 in the assay on MDA-N is 2.72 µM (inactive); in the assay on SF-295, 11.2 µM (inactive); in the assay with HCT-116 it was 13.2 µM (inactive); in the assay on A549, 19 µM (inactive); in the assay on SN12C, 22.9 µM (inactive); with HL-60 it was 2.73 µM (inactive). Besides, the GI50 with IGROV-1 was 3.79 µM (inactive); in the assay with CCRF-CEM it was 15.9 µM (inactive); in the assay with HOP-92, 21.1 µM (inactive); in the assay with SF-539 it was 26.6 µM (inactive); in the assay with SK-MEL-5, 14.9 µM (inactive); in the assay with NCI/ADR-RES it was 10.4 µM (inactive). Moreover, the GI50 with CAKI-1 is 16.4 µM (inactive); in the assay with Hs-578T it was 27.9 µM (inactive).
For the compound `CCOC(=O)/C(C#N)=N\Nc1ccc(-n2c(C)nc3ccccc3c2=O)cc1`, the GI50 was 29.6 µM (inactive) with OVCAR-8; > 100 µM (inactive) in the assay with 786-0; 61.4 µM (inactive) in the assay with UACC-257; 75.3 µM (inactive) in the assay on PC-3; 32.7 µM (inactive) with OVCAR-3; 70.3 µM (inactive) with UACC-62. Moreover, the GI50 is 47.3 µM (inactive) with MDA-N; 56.9 µM (inactive) with SF-295; 59.6 µM (inactive) in the assay with HCT-116; 73.6 µM (inactive) with A549; > 100 µM (inactive) in the assay with SN12C; 26.5 µM (inactive) in the assay with HL-60. The GI50 with IGROV-1 is 51.2 µM (inactive); with CCRF-CEM it was > 100 µM (inactive); in the assay on HOP-92, > 100 µM (inactive); with SF-539 it was > 100 µM (inactive); in the assay on SK-MEL-5 it was 16.5 µM (inactive); in the assay with NCI/ADR-RES it was 18.9 µM (inactive). In addition, the figures for the GI50 in the assay with CAKI-1 and in the assay on Hs-578T were > 100 µM (inactive) and 59 µM (inactive), respectively.
